Experimental data: PubChem BioAssay AID1996
Converted amounts (≈) assume the structure as drawn.

Conditions: buffer; pH 7.4; 200.0 µM

Compound | solubility kinetic [µg/mL]
O=C(COC(=O)c1cc2ccccc2cc1O)NCc1ccccc1 | 3 (≈ 8.95 µM)
N#CC(C(=O)c1ccccc1)=C1SCCS1 | 1.8 (≈ 7.28 µM)
Cc1ccc(CN(C)CC(=O)NC(C)c2ccccc2)cc1 (centres undefined) | > 44.5
COc1ccc(NC(=O)NS(=O)(=O)c2ccc(C)cc2)cc1OC | > 52.6
CCCc1nc2ccccc2c(=O)n1CCc1ccccc1 | 1.7 (≈ 5.81 µM)
Cc1nn(C)c2ncc(C(N)=O)c(Oc3cccnc3)c12 | > 42.5
Cc1cccc(C2NC(=O)c3ccccc3O2)c1 (centres undefined) | 24.3 (≈ 102 µM)
Clc1ccc(C2Nc3cccc4cccc(c34)N2)cc1 | 7.7 (≈ 27.4 µM)
CSc1nc(NCC(C)O)c2c3c(sc2n1)CN(C)CC3 (centres undefined) | 44.7 (≈ 138 µM)
COn1c(=O)c(-c2ccc(F)cc2)[n+]([O-])c2ccccc21 | > 42.9
O=C(Cn1ccc([N+](=O)[O-])n1)NCC1CCCO1 (centres undefined) | > 38.1
O=C(CC(NC(=O)c1ccccc1)c1ccccc1)NCc1ccccc1 (centres undefined) | 4.1 (≈ 11.4 µM)
NS(=O)(=O)c1cccc(NC(=O)CSc2nnc3n2CCCCC3)c1 | > 57.2
Cc1ccc(C)c(OCCCN2CCNCC2)c1.Cl | 39.3
COC(=O)CCN(C(=O)c1cccc([N+](=O)[O-])c1)c1ccccn1 | > 49.4
O=S(=O)(c1ccc(Cl)cc1)N1CCN(c2ncccn2)CC1 | 0.9 (≈ 2.66 µM)
COc1ccccc1C(=O)Nc1nc2cc3c(cc2s1)OCO3 | < 0.4
O=C(Cc1cccs1)NCCc1ccc(Cl)cc1 | 40.5 (≈ 145 µM)
Cl.NCC(O)c1ccc(O)cc1 (centres undefined) | > 28.4
O=C(Nc1ccccc1)O/N=C1/CCCc2occc21 | 16.6 (≈ 61.4 µM)
Cc1ccc(NC(=S)NC(=O)C2CC2)cc1Cl | 2.9 (≈ 10.8 µM)
O=S(=O)(c1ccc(Cl)cc1)N1CCCc2ccccc21 | 3.7 (≈ 12 µM)
Cn1c(=O)n(C)c2cc([N+](=O)[O-])c(N3CCNCC3)cc21 | > 43.7
Cc1cc(NC(=O)CSc2nnc(C)n2-c2ccccc2C)no1 | > 51.5
CCN1C(=O)CCC(C(=O)O)C1c1ccc(OC)cc1 (centres undefined) | > 41.6
Cc1cc(C)c(C#N)c(Nc2ccc(F)cc2)n1 | 0.8 (≈ 3.32 µM)

Further lines, results first:

solubility kinetic [µg/mL] | Compound
> 34 | CNC(=S)N1CCc2sccc2C1C (centres undefined)
1 (≈ 2.92 µM) | COc1ccc(OCCN2C(=O)c3ccccc3C2=O)c([N+](=O)[O-])c1
> 37.3 | S=C(NCc1ccccc1)NC1CCCCC1
45.2 (≈ 141 µM) | Cc1ccc(C2=NOC3(CC(=O)N(c4ccccc4)C3=O)C2)cc1 (centres undefined)
> 47.7 | O=C(Nc1cc(Cl)ccc1N1CCOCC1)c1ccncc1
5.1 (≈ 12.4 µM) | COc1ccc(NC(=O)c2cc(F)cc(F)c2)cc1S(=O)(=O)N1CCCCC1
> 34.7 | O=c1[nH]cnc2onc(-c3ccc(F)cc3)c12
19 (≈ 51.3 µM) | COc1ccccc1NC(=S)NC(NC(C)=O)C(Cl)(Cl)Cl (centres undefined)
> 28.8 | O=c1[nH]cnc2sc3c(c12)CCC3
> 56.3 | NC(=O)C1(N2CCCCC2)CCN(Cc2nc(-c3cccs3)no2)CC1
> 41.3 | Cl.NCc1cc2c3c(c1)CCCN3CCC2
> 43.4 | COc1cc(OC)cc(C(=O)NCCCn2ccnc2)c1
> 50.4 | Cc1cc(Cl)ccc1NC(=O)CN1C(=O)NC2(CCCC2)C1=O
29.2 (≈ 99.2 µM) | NC(=O)NC(=O)COC(=O)CC12CC3CC(CC(C3)C1)C2
> 47.8 | Cc1cccc(NC(=O)CSCC(=O)NCc2ccco2)c1
> 37.4 | O=C(Cc1ccsc1)NCc1ccccc1F
> 50.9 | Cc1cc(C(=O)N2CCN(Cc3ccccc3)CC2)ccc1[N+](=O)[O-]
> 46.1 | O=C(COC(=O)/C=C/c1ccc(F)cc1)NCC1CCCO1 (centres undefined)
2.2 (≈ 6.77 µM) | CCCNC(=S)N1CCC(C(=O)c2ccc(Cl)cc2)CC1
< 0.3 | CC1CCCC(NC(=O)CCCn2c(=S)[nH]c3ccccc3c2=O)C1C (centres undefined)
3.1 (≈ 8.67 µM) | Cc1cccc(S(=O)(=O)Nc2nc3ccccc3nc2OC(C)C)c1
> 40.1 | O=C(/C=C/c1cccc2ccccc12)N1CCOCC1
> 42.2 | CCOC(=O)Nc1cc(NC(=O)OCC)c(C)nc1C
